For 32 compounds, IC50 results are on record in patent publication US9499551B2, “Substituted pyrrolo[2,3-b]pyridines for treating cancer or inflammatory diseases” (Confluence Life Sciences, Inc., priority 2014, dated 2016).

pIC50: −log10 of the molar value. A value given as a limit tells only on which side of the number the result lay.

For this experiment, the target named is T1, TAK1-TAB1 (Homo sapiens, UniProt O43318).
T1 sequence (O43318 with tags, fused parts or gaps limits assumed): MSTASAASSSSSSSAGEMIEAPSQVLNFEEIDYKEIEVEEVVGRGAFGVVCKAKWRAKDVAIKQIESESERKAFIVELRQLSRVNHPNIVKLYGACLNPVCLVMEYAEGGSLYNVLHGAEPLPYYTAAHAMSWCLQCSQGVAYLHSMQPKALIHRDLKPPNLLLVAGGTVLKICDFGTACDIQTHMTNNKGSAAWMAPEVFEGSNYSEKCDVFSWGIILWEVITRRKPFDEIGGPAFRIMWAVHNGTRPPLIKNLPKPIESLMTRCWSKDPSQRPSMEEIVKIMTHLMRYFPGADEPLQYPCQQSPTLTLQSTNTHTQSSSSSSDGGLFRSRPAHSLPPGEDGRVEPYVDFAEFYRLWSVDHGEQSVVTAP
Nature of the experiment: TAK1-TAB1 binding inhibitory potency (LanthaScreen competitive binding assay, kinase tracer-236). The following applies: 10 nM TAK1-TAB1, 100 nM kinase tracer-236; read-out: TAK1-Tab Inhibition IC50. An excerpt: TAK1-TAB1 Binding Inhibitory Potency:
The ability of candidate compounds to interact with TAK1-TAB1 is quantitated by a competitive binding assay using the LanthaScreen technology developed by Life Technologies. This assay is based on the binding of a proprietary, Alexa Fluor® 647-labeled, ATP-competitive kinase inhibitor (kinase tracer-236) to the TAK1-TAB1 construct in presence of a europium-conjugated antibody, resulting in a FRET (fluorescence resonance energy transfer) signal. Displacement of the kinase tracer by compound results in a lower emission ratio upon excitation of the europium chelate. Candidate compounds are designed as potential irreversible inhibitors of TAK1-TAB1, capable of ligating to an active site cysteine residue. The time dependent nature of irreversible inhibition is investigated by performing the binding assay with and without a pre-incubation of compound and TAK1-TAB1.
The inhibitory potency of candidate compounds is measured in 20 mM HEPES pH 7.5, 10 mM MgCl2, 0.01% BSA, 0.0005% Tween-20, and 2% DMSO in the presence of 10 nM TAK1-TAB1, 2 nM Eu-anti-his antibody, and 100 nM kinase tracer-236 using a 384-well plate format. Background signal is defined in the absence of TAK1-TAB1 and uninhibited signal is defined in the presence of vehicle (2% DMSO) alone. Compounds were evaluated in an 11 point dose-response ranging from 20 μM to 0.34 nM. The binding assays are performed under two conditions to evaluate time dependence of inhibition. For the pre-incubation assay, TAK1-TAB1 and Eu-anti-his antibody are preincubated with compound or vehicle for two hours prior to the addition of kinase tracer. The non-preincubated assay is run in which TAK1-TAB1 and Eu-anti-his antibody are added to a mixture of compound and kinase tracer. IC50 values of compounds are determined using a 4 parameter logistical fit of emission ratio as a function of the concentration of compound. […]
On the technique in general: Time-resolved FRET reads energy transfer from a long-lived donor to a nearby acceptor.
In the case of `NC(=O)/C=C/c1c[nH]c2ncc(-c3ccc(C(=O)c4nccs4)cc3)cc12` [Example 324, (E)-3-(5-(4-(thiazole-2-carbonyl)phenyl)-1H-pyrrolo[2,3-b]pyridin-3-yl)acrylamide], the negative logarithm of the IC50 (pIC50) (usually the negative decadic logarithm of the IC50, by convention in mol/L) is no less than 6.00. The figure for `CC(C)COc1ccc(-c2cnc3[nH]cc(/C=C/C(N)=O)c3c2)cn1` [Example 325, (E)-3-(5-(6-isobutoxypyridin-3-yl)-1H-pyrrolo[2,3-b]pyridin-3-yl)acrylamide] is no less than 6.00; for `CC(C)Cn1cc(-c2cnc3[nH]cc(/C=C/C(N)=O)c3c2)ccc1=O` [Example 326, (E)-3-(5-(1-isobutyl-6-oxo-1,6-dihydropyridin-3-yl)-1H-pyrrolo[2,3-b]pyridin-3-yl)acrylamide] it is no less than 6.00; for `NC(=O)/C=C/c1c[nH]c2ncc(-c3ccc(OCC4CC4)nc3)cc12` [Example 327, (E)-3-(5-(6-(cyclopropyl-methoxy)pyridin-3-yl)-1H-pyrrolo[2,3-b]pyridin-3-yl)acrylamide] it is no less than 6.00. The value for `NC(=O)/C=C/c1c[nH]c2ncc(-c3ccc(=O)n(CC4CC4)c3)cc12` [Example 328, (E)-3-(5-(1-(cyclopropyl-methyl)-6-oxo-1,6-dihydropyridin-3-yl)-1H-pyrrolo[2,3-b]pyridin-3-yl)acrylamide] was no less than 6.00; that for `CON(C)C(=O)c1ccc(-c2cnc3[nH]cc(/C=C/C(N)=O)c3c2)cc1` [Example 329, (E)-4-(3-(3-amino-3-oxoprop-1-en-1-yl)-1H-pyrrolo[2,3-b]pyridin-5-yl)-N-methoxy-N-methyl-benzamide] was no less than 6.00. The figure for `Cc1nc2[nH]cc(/C=C/C(N)=O)c2cc1-c1cccnc1` [Example 330, (E)-3-(6-methyl-5-(pyridin-3-yl)-1H-pyrrolo[2,3-b]pyridin-3-yl)acrylamide] is no less than 6.00.

For `CC(=O)c1ccc(-c2cc3c(/C=C/C(N)=O)c[nH]c3nc2C)cc1` [Example 331, (E)-3-(5-(4-acetylphenyl)-6-methyl-1H-pyrrolo[2,3-b]pyridin-3-yl)acrylamide], the pIC50 is no less than 6.00. The figure for `NC(=O)/C=C/c1c[nH]c2ncc(N3CCN(C(=O)c4ccc(F)cc4F)CC3)cc12` [Example 332, (E)-3-(5-(4-(2,4-difluorobenzoyl)piperazin-1-yl)-1H-pyrrolo[2,3-b]pyridin-3-yl)acrylamide] is no less than 6.00. The value for `CN1CCC(C(=O)c2ccc(-c3cnc4[nH]cc(/C=C/C(N)=O)c4n3)cc2)CC1` [Example 333, (E)-3-(2-(4-(1-methylpiperidine-4-carbonyl)phenyl)-5H-pyrrolo[2,3-b]pyrazin-7-yl)acrylamide] was no less than 6.00; that for `CN1CCC(C(=O)c2ccc(-c3cnc4[nH]cc(/C=C/C(N)=O)c4c3)cc2)CC1` [Example 334, (E)-3-(5-(4-(1-methylpiperidine-4-carbonyl)phenyl)-1H-pyrrolo[2,3-b]pyridin-3-yl)acrylamide] was no less than 6.00; that for `CC(C)c1ccc(C(=O)N2CCN(c3cnc4[nH]cc(/C=C/C(N)=O)c4c3)CC2)cc1` [Example 335, (E)-3-(5-(4-(4-isopropylbenzoyl)piperazin-1-yl)-1H-pyrrolo[2,3-b]pyridin-3-yl)acrylamide] was no less than 6.00.

Regarding `CCOCCOc1ccc(-c2cnc3[nH]cc(/C=C/C(N)=O)c3c2)cn1` [Example 336, (E)-3-(5-(6-(2-ethoxyethoxy)pyridin-3-yl)-1H-pyrrolo[2,3-b]pyridin-3-yl)acrylamide], the pIC50 is no less than 6.00. The figure for `CCOCCn1cc(-c2cnc3[nH]cc(/C=C/C(N)=O)c3c2)ccc1=O` [Example 337, (E)-3-(5-(1-(2-ethoxyethyl)-6-oxo-1,6-dihydropyridin-3-yl)-1H-pyrrolo[2,3-b]pyridin-3-yl)acrylamide] is no less than 6.00. The figure for `NC(=O)/C=C/c1c[nH]c2ncc(C(=O)c3ccccc3)cc12` [Example 338, (E)-3-(5-benzoyl-1H-pyrrolo[2,3-b]pyridin-3-yl)acrylamide] is no less than 6.00; for `CC(=O)c1ccc(-c2cnc3[nH]cc(/C=C/C(N)=O)c3c2)cc1C` [Example 339, (E)-3-(5-(4-acetyl-3-methylphenyl)-1H-pyrrolo[2,3-b]pyridin-3-yl)acrylamide] it is no less than 6.00. The value for `CC(=O)c1ccc(-c2cnc3[nH]cc(/C=C/C(N)=O)c3n2)cc1C` [Example 340, (E)-3-(2-(4-acetyl-3-methylphenyl)-5H-pyrrolo[2,3-b]pyrazin-7-yl)acrylamide] was no less than 6.00. As for `NC(=O)/C=C/c1c[nH]c2ncc(-c3cccc(Oc4ccccc4)c3)cc12` [Example 341, (E)-3-(5-(3-phenoxyphenyl)-1H-pyrrolo[2,3-b]pyridin-3-yl)acrylamide], the negative logarithm of the IC50 (pIC50) is no less than 6.00. The value for `NC(=O)/C=C/c1c[nH]c2ncc(-c3ccc(Oc4ccccc4)cc3)cc12` [Example 342, (E)-3-(5-(4-phenoxyphenyl)-1H-pyrrolo[2,3-b]pyridin-3-yl)acrylamide] was no less than 6.00. The value for `NC(=O)/C=C/c1c[nH]c2ncc(-c3ccc4c(c3)CCC4=O)nc12` [Example 343, (E)-3-(2-(1-oxo-2,3-dihydro-1H-inden-5-yl)-5H-pyrrolo[2,3-b]pyrazin-7-yl)acrylamide] was no less than 6.00; that for `NC(=O)/C=C/c1c[nH]c2ncc(-c3ccc(Oc4ccc(F)cc4)cc3)cc12` [Example 344, (E)-3-(5-(4-(4-fluorophenoxy)phenyl)-1H-pyrrolo[2,3-b]pyridin-3-yl)acrylamide] was no less than 6.00; that for `NC(=O)/C=C/c1c[nH]c2ncc(-c3ccc(Oc4ccccc4)nc3)cc12` [Example 345, (E)-3-(5-(6-phenoxypyridin-3-yl)-1H-pyrrolo[2,3-b]pyridin-3-yl)acrylamide] was no less than 6.00. The figure for `CC(=O)c1cccc(N2CCN(c3cnc4[nH]cc(/C=C/C(N)=O)c4c3)CC2)c1` [Example 346, (E)-3-(5-(4-(3-acetylphenyl)piperazin-1-yl)-1H-pyrrolo[2,3-b]pyridin-3-yl)acrylamide] is no less than 6.00; for `NC(=O)/C=C/c1c[nH]c2ncc(-c3cc(Cl)cc(C(F)(F)F)c3)cc12` [Example 347, (E)-3-(5-(3-chloro-5-(trifluoromethyl)phenyl)-1H-pyrrolo[2,3-b]pyridin-3-yl)acrylamide] it is no less than 6.00.

In the case of `Cc1cc(-c2cnc3[nH]cc(/C=C/C(N)=O)c3c2)cc(C(F)(F)F)c1` [Example 348, (E)-3-(5-(3-methyl-5-(trifluoromethyl)phenyl)-1H-pyrrolo[2,3-b]pyridin-3-yl)acrylamide], the pIC50 was no less than 6.00.

In the case of `COc1cc(-c2cnc3[nH]cc(/C=C/C(N)=O)c3c2)cc(C(F)(F)F)c1` [Example 349, (E)-3-(5-(3-methoxy-5-(trifluoromethyl)phenyl)-1H-pyrrolo[2,3-b]pyridin-3-yl)acrylamide], the pIC50 was no less than 6.00.

`NC(=O)/C=C/c1c[nH]c2ncc(-c3cc(Cl)nc(C(F)(F)F)c3)cc12` [Example 350, (E)-3-(5-(2-chloro-6-(trifluoromethyl)pyridin-4-yl)-1H-pyrrolo[2,3-b]pyridin-3-yl)acrylamide]: the pIC50 is no less than 6.00.

With `Cc1nc(C(=O)N(C)C)ccc1-c1cnc2[nH]cc(/C=C/C(N)=O)c2c1` [Example 351, (E)-5-(3-(3-amino-3-oxoprop-1-en-1-yl)-1H-pyrrolo[2,3-b]pyridin-5-yl)-N,N,6-trimethyl-picolinamide], the negative logarithm of the IC50 (pIC50) is no less than 6.00.

With `NC(=O)/C=C/c1c[nH]c2ncc(-c3ccc4c(c3)C(=O)CC4)cc12` [Example 352, (E)-3-(5-(3-oxo-2,3-dihydro-1H-inden-5-yl)-1H-pyrrolo[2,3-b]pyridin-3-yl)acrylamide], the pIC50 was no less than 6.00. Regarding `NC(=O)/C=C/c1c[nH]c2ncc(C(=O)c3ccc(F)cc3)cc12` [Example 353, (E)-3-(5-(4-fluorobenzoyl)-1H-pyrrolo[2,3-b]pyridin-3-yl)acrylamide], the negative logarithm of the IC50 (pIC50) was no less than 6.00. The value for `CN(C)C(=O)c1cnc2[nH]cc(/C=C/C(N)=O)c2c1` [Example 355, (E)-3-(3-amino-3-oxoprop-1-en-1-yl)-N,N-dimethyl-1H-pyrrolo[2,3-b]pyridine-5-carboxamide] was no less than 6.00; that for `NC(=O)/C=C/c1c[nH]c2ncc(C=O)cc12` [Example 356, (E)-3-(5-formyl-1H-pyrrolo[2,3-b]pyridin-3-yl)acrylamide] was no less than 6.00.
